Measured values taken from patent US12606538B2, “Benzo[b]selenophene sting regulator, preparation method and use thereof” (CHINA PHARMACEUTICAL UNIVERSITY, priority 2021, dated 2026).
pIC50: −log10 of the molar value. In brackets after ≈: the same amount, converted by molar mass. Read-outs that look alike come from different tables or passages of the source.

How the values were obtained:
RAW-Lucia cells = assay: Luciferase assay based on RAW-Lucia cells; assay type: cell-based; conditions: 24 h at 37° C.
Protocol: (§1) THP1-dual™ (Invivogen: thpd-nfis) cells or RAW-Lucia™ (Invivogen: rawl-isg) cells were diluted using a culture medium, and 180 μL of cell suspension was sucked and inoculated in a 96-well plate, such that each well contain 1×10^5 cells. 20 μL of a compound to be tested was added into the 96-well plate (the final concentration of said compound was […], and the final volume of each well was […]) and cultured at 37° C. for 24 h. 10 μL of supernatant was sucked into a new 96-well white plate, and 50 μL of a QUANT-Luc reagent was added. After full and even mixing, a microplate reader was used immediately for determination. There were three repeated wells set in the assay. The test result was represented as agitation fold and calculated by (test well−blank well)/(negative well−blank well). The test result was in the following tablet, with 2′,3′-cGAMP as a positive control, where *** represented an agitation fold of 20 or more, ** represented an agitation fold of 10 to 20, and * represented an agitation fold of 1 to 10.

[1] = Stability of human plasma within 24 h; assay type: in vitro ADME; conditions: stability of human plasma within 24 h
From the text: (§2) The test result was shown in the following table, with MSA2 (Science. 2020, 369, eaba6098) as a reference compound.

THP1 cells [2] = assay: Interferon β induction assay based on THP1 cells (ELISA); assay type: cell-based; conditions: Homo sapiens, THP-1, compound 20 μM, 3.5 h, read-out: Secretion of IFNβ in THP1 cells, effect relative to 2′,3′-cGAMP at 20 μM (%)
Protocol: Secreted cytokine IFNβ was determined by ELISA. THP1 cells were inoculated in a 96-well plate (there was no serum contained in an RPMI 1640 medium), such that the number of cells in each well ranged from 5×10^5 to 7×10^5. A DMSO stock solution of 10 mM was prepared from a compound to be tested, diluted with a culture medium to a target concentration to be added into the 96-well plate containing cells (the final concentration of said compound was 20 μM, and the final volume of each well was 200 μL), and cultured at 37° C. in 5% CO2 for 3.5 h. The cells were collected at 4° C. and centrifuged at 1,000 rpm for 20 mins, and supernate was collected for ELISA determination. There were three repeated wells set in the assay. The result was shown in the following tablet, with 2′,3′-cGAMP as a positive control, where the test result was represented as a percentage of activity relative to 2′,3′-cGAMP at a concentration of 20 μM.

THP1-dual cells = assay: Luciferase assay based on THP1-dual cells; assay type: cell-based; conditions: final concentration of compound 10 μL (so in the source), 24 h at 37° C.
Protocol: as §1

LogP = assay type: physicochemical; conditions: read-out: LogP
From the text: as §2

THP1 cells [3] = assay: THP1 cell growth inhibition activity; assay type: cell-based; conditions: Homo sapiens, THP-1
From the text: as §2

Water solubility = assay type: physicochemical
From the text: as §2

[4] = Stability of rat liver microsome within 2 h; assay type: in vitro ADME; conditions: stability of rat liver microsome within 2 h
From the text: as §2

[5] = PBS, aqueous buffer, read-out: water solubility, PBS
[6] = water, read-out: water solubility, Water

| SMILES | Agitation activity in luciferase assay, RAW-Lucia (agitation fold) (RAW-Lucia cells) | hPlasma @ 24 h (%) [1] [%] | Emax at 20 µM (THP1 cells [2]) [%] | Agitation activity in luciferase assay, THP1-dual (agitation fold) (THP1-dual cells) | logP (LogP) | pIC50 (THP1 cells [3]) | solubility (Water solubility; [5]) [µg/mL] | solubility (Water solubility; [6]) [µg/mL] | RLM @ 2 h (%) [4] [%] |
| --- | --- | --- | --- | --- | --- | --- | --- | --- | --- |
| COc1cc2cc(C(=O)CC(C)C(=O)O)[se]c2cc1OC (stereo not drawn) [I-2, 4-(5,6-dimethoxybenzo[b]selenophene-2-yl)-2-methyl-4-oxo-butanoic acid] | *** (*** represented an agitation fold of 20 or more) | >90 | 245 | *** (*** represented an agitation fold of 20 or more) | 2.4 | < 4.00 | 1000 (≈ 2810 µM) | 30 (≈ 84.4 µM) | >90 |
| COc1cc2cc(C(=O)CCC(=O)O)[se]c2cc1OC [I-1, 4-(5,6-dimethoxybenzo[b]selenophene-2-yl)-4-oxobutanoic acid] | *** (*** represented an agitation fold of 20 or more) | >90 | 259 | *** (*** represented an agitation fold of 20 or more) | 2.5 | < 4.00 | 1900 (≈ 5570 µM) | 36 (≈ 106 µM) | >90 |
| CCC(CC(=O)c1cc2cc(OC)c(OC)cc2[se]1)C(=O)O (stereo not drawn) [I-14, 4-(5,6-dimethoxybenzo[b]selenophene-2-yl)-2-ethyl-4-oxo-butanoic acid] | *** (*** represented an agitation fold of 20 or more) | >90 | 260 | *** (*** represented an agitation fold of 20 or more) | 2.7 | < 4.00 | 700 (≈ 1900 µM) | 28 (≈ 75.8 µM) | >90 |
